Like-named read-outs stand apart in the source and are kept apart here.
Legend:
[1] = system: acetylated Ac-α-tubulin in A2780s cells; test: Induction of α-tubulin acetylation in A2780s cells (cytoblot); type: cell-based; settings: Homo sapiens, 6 h treatment, read-out: Ac-Tub EC50
Experimental: (§1) Specific operation: After the treatment, washing each well once with 50-100 μl of cold TBS buffer [with the composition as 20 mM Tris (trismetyl aminomethane), pH7.5] and fixing it with 100 μL of 4% pre-cooled paraformaldehyde at 4° C. for 1 h; after paraformaldehyde is washed off, adding 50 μL of pre-cooled methyl alcohol in each well and evenly spreading at 4° C. for 5 min; after methyl alcohol is washed off, washing it once with the TBS buffer containing 3% skim milk powder and adding 50 μL of antibody fluid, oscillating it slightly at 4° C. and incubating overnight. For determination of Ac—H3, the antibody fluid is prepared by diluting Ac—H3 antibody and horseradish peroxide coupled secondary antibody to a same system with the TBS buffer containing 3% skim milk powder (Ac—H3 antibody is purchased from Santa Cruz Company and diluted at a ratio of 1:100; horseradish peroxide coupled secondary antibody is purchased from Jackson Company and diluted at a ratio of 1:2000); for determination of acetylated Ac-α-tubulin, the antibody fluid is prepared by diluting Ac-α-tubulin antibody and horseradish peroxide coupled secondary antibody to a same system with the TBS buffer containing 3% skim milk powder (Ac-α-tubulin antibody is purchased from Santa Cruz Company and diluted at a ratio of 1:100; horseradish peroxide coupled secondary antibody is purchased from Jackson Company and diluted at a ratio of 1:2000).
(§2) Calculating the value of IC50 as per the formula: Y=background data+(top data−background data)/(1+10^((Log EC50−X)*rate of curve)) Where, Y refers to the activating rate (%) and X refers to the compound concentration.

[2] = system: acetylated histone H3 (Ac-H3) in A2780s cells; test: Induction of histone H3 acetylation in A2780s cells (cytoblot); type: cell-based; settings: Homo sapiens, 6 h treatment
Experimental: as §1, §2

PI3Kγ = target: T1, PI3Kγ (Homo sapiens, UniProt P48736); test: PI3Kγ activity inhibition (ADP-Glo); type: biochemical
T1 construct: purchased Invitrogen PR8641C
Experimental: (§3) Detecting the inhibition capability of the compound to PI3Kβ and PI3Kγ activities with ADP-Glo (purchased from Promege Company; Catalog No.: v9102/3). […] The reaction system also comprises substrates as PIP2 and ATP. The reaction buffer system comprises 50 mM HEPES, 3 mM MgCl2, 1 mM EGTA, 100 mM NaCl, 0.03% CHAPS and 2 mM DTT. The pH value of the reaction buffer is 7.5. […] Mixing the system evenly for incubation under ambient temperature for 1 h; getting a new 384 well plate and transferring 5 μL reaction liquid from the each well of original 384 well plate to the corresponding wells of the new 384 well plate; adding 5 μL ADP-Glo which has been preheated to ambient temperature into each new reaction well to terminate the reaction; oscillating it slowly in dark place for 40 min's incubation after it is mixed evenly; adding 10 μL testing liquid in each reaction well, oscillating it for 1 min to mix evenly and incubating it for 1 h, then measuring the fluorescence intensity with a microplate reader and analyzing the result data with the software GraphPad Prism.
(§4) Calculating the value of IC50 as per the formula: Y=background data+(top data−background data)/(1+10^((Log IC50−X)*rate of curve))
(§5) Where, Y refers to the inhibition ratio (%) and X refers to the compound concentration.

PI3Kβ = target: T2, PI3Kβ (Homo sapiens, UniProt P42338); test: PI3Kβ activity inhibition (ADP-Glo); type: biochemical
T2 construct: purchased Millipore 14-603-K
Experimental: as §3, §4, §5

HDAC1 = target: T3, HDAC1 (Homo sapiens, UniProt Q13547); test: In vitro HDAC1 enzymatic activity inhibition (Lys-Ac-AMC substrate); type: biochemical
T3 construct: purchased BPS Bioscience
In short: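 Fluorogenic Lys-Ac-AMC deacetylation with trypsin development in modified Tris buffer pH 7.0; compound preincubated with enzyme 15 min at ambient temperature before substrate addition. Final HDAC1 6 nM, trypsin 0.05 μM, Ac-peptide 8 μM. IC50 from four-parameter fit of % inhibition versus concentration.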

HDAC2 = target: T4, HDAC2 (Homo sapiens, UniProt Q92769); test: HDAC2 enzyme inhibition (Lys-Ac-AMC); type: biochemical; settings: Table 4, graded
T4 construct: purchased BPS Bioscience 50002
Experimental: (§6) Determining the inhibition capability of HDAC through the substrate method of fluorophore coupled acetylized peptide fragment (Lys-Ac-AMC). HDAC2-11 proteins of subtypes are purchased from BPS Bioscience Company with the Art. […] The reaction buffer system is a modified Tris buffer (pH7.0). The small molecule compounds are prepared and dissolved with 100% DMSO. […] Adding the compound into the reaction wells of the 384 well plate at the designed concentration, then adding 15 μL HDAC enzyme solution into the reaction wells (adding 15 μL blank buffer into the control well 0) for incubation under ambient temperature for 15 min; then adding 10 μL substrate solution to start reaction.
(§7) Analyzing the result data with the software GraphPad Prism and calculating the value of IC50 as per the formula: Y=background data+(top data−background data)/(1+10^((Log IC50−X)*rate of curve)). Where, Y refers to the inhibition ratio (%) and X refers to the compound concentration.

[3] = system: Ramos cells (B-cell lymphoma); test: Proliferation inhibition, Ramos (cck-8); type: cell-based; settings: Homo sapiens, 96 h incubation
Excerpt: Calculating the value of IC50 as per the formula: Y=background data+(top data−background data)/(1+10^((Log IC50−X)*rate of curve)). Where, Y refers to the inhibition ratio (%) and X refers to the compound concentration.

HDAC9 = target: T5, HDAC9 (Homo sapiens, UniProt Q9UKV0); test: HDAC9 enzyme inhibition (Lys-Ac-AMC); type: biochemical; settings: Table 4, graded
T5 construct: purchased BPS Bioscience 50009
Experimental: as §6, §7

[4] = Table 1, graded, read-out: HDAC1 IC50
[5] = Table 4, graded, read-out: HDAC1 IC50
[6] = read-out: inhibition value IC50 to the activity of HDAC1

T4 sequence (Q92769 whole entry, species assumed): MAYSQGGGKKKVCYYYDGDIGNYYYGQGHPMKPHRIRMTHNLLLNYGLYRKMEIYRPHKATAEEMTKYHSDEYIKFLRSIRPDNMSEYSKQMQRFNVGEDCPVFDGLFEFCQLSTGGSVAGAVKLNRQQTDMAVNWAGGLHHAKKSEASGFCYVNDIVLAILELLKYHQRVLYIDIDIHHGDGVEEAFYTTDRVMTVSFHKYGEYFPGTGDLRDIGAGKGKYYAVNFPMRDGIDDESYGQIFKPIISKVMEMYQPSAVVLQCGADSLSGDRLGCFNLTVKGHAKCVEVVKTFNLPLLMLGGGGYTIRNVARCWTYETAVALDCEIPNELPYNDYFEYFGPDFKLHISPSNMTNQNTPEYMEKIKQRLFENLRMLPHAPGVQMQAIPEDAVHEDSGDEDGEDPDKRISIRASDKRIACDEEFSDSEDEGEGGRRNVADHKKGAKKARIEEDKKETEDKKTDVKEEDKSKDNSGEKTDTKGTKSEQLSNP
T5 sequence (Q9UKV0 1-1066 isoform Q9UKV0-5): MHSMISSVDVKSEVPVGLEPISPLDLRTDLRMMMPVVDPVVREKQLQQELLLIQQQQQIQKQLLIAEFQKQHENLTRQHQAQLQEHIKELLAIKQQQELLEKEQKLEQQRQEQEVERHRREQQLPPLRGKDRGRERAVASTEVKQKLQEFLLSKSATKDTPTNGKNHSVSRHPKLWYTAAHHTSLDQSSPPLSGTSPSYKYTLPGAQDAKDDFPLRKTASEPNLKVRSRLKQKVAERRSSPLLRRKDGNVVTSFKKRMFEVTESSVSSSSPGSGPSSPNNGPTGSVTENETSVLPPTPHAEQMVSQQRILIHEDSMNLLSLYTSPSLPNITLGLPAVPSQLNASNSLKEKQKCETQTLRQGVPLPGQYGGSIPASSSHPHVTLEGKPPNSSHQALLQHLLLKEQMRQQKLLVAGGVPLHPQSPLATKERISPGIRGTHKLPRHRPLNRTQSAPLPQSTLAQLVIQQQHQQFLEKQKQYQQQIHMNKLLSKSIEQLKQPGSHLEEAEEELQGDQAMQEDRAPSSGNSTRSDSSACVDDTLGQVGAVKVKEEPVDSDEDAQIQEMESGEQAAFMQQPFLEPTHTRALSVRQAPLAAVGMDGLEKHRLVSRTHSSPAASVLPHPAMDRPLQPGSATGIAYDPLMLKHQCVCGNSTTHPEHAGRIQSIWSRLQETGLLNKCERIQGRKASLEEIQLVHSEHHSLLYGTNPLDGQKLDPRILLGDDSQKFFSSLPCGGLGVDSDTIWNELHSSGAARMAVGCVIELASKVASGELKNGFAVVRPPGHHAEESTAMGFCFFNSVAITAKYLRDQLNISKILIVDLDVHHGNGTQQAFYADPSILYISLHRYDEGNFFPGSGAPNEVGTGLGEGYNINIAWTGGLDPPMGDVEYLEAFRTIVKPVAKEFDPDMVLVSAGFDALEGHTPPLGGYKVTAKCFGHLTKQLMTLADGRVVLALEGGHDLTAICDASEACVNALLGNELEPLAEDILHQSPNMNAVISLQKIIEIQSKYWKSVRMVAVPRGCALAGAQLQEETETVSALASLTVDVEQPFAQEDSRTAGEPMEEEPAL
T2 sequence (P42338 whole entry, species assumed): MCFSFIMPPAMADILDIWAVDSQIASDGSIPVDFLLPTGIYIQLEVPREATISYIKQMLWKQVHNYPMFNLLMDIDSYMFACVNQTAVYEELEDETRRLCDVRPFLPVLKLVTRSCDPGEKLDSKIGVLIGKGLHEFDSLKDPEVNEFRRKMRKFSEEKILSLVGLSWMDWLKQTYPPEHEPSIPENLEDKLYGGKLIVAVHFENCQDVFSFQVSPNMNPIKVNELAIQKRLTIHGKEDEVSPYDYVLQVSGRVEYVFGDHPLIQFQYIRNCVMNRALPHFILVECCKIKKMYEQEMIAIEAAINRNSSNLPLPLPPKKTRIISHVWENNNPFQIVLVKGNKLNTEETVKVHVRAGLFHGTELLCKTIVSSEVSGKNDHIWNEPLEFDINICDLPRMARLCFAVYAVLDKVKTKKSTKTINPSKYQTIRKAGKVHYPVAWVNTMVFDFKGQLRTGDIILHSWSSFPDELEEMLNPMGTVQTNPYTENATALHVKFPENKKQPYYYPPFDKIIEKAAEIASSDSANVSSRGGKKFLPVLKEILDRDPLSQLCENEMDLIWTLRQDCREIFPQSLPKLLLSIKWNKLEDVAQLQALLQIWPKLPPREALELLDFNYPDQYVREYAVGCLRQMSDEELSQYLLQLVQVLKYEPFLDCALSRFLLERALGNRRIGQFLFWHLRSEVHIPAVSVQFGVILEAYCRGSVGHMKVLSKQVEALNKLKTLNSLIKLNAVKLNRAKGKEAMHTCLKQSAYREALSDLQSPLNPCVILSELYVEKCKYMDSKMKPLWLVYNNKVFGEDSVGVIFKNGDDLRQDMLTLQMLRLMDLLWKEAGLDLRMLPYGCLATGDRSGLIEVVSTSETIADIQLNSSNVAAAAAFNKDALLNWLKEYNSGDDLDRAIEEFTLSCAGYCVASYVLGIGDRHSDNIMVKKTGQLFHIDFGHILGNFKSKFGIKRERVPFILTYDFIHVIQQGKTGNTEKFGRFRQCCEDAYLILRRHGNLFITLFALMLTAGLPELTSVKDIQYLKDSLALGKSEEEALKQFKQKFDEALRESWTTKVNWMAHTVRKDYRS
T2 sequence (P27986 whole entry partner, species assumed): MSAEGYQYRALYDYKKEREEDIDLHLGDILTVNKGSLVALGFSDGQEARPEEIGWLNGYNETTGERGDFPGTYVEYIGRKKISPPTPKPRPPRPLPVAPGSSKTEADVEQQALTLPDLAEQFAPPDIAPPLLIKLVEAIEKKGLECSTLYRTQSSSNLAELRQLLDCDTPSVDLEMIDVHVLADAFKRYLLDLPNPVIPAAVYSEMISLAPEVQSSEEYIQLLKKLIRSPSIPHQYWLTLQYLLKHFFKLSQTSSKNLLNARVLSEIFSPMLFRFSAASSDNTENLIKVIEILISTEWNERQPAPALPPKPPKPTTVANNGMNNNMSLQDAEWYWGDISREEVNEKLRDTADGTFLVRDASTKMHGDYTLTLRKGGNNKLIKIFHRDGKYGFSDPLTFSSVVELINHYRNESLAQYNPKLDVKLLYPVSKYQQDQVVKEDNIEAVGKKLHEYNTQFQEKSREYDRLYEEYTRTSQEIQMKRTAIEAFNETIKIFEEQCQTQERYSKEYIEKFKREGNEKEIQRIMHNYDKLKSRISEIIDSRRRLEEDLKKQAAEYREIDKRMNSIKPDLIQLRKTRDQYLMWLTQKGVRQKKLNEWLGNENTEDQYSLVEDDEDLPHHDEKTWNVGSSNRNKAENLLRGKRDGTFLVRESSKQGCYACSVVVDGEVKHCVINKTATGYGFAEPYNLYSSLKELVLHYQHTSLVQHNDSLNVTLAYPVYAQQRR
T3 sequence (Q13547 whole entry, species assumed): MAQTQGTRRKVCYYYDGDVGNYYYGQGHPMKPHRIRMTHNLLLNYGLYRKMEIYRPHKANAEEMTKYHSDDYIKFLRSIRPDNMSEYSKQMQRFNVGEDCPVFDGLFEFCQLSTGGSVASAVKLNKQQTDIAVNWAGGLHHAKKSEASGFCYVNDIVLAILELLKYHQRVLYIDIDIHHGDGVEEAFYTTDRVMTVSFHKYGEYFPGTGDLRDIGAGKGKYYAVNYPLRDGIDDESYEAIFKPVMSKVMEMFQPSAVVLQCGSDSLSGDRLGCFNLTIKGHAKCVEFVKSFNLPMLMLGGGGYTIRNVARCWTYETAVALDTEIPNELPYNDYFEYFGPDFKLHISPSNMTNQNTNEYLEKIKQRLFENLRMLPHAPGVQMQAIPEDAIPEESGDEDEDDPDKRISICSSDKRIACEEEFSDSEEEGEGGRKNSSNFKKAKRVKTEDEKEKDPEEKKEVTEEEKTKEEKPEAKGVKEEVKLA
T1 sequence (P48736 whole entry): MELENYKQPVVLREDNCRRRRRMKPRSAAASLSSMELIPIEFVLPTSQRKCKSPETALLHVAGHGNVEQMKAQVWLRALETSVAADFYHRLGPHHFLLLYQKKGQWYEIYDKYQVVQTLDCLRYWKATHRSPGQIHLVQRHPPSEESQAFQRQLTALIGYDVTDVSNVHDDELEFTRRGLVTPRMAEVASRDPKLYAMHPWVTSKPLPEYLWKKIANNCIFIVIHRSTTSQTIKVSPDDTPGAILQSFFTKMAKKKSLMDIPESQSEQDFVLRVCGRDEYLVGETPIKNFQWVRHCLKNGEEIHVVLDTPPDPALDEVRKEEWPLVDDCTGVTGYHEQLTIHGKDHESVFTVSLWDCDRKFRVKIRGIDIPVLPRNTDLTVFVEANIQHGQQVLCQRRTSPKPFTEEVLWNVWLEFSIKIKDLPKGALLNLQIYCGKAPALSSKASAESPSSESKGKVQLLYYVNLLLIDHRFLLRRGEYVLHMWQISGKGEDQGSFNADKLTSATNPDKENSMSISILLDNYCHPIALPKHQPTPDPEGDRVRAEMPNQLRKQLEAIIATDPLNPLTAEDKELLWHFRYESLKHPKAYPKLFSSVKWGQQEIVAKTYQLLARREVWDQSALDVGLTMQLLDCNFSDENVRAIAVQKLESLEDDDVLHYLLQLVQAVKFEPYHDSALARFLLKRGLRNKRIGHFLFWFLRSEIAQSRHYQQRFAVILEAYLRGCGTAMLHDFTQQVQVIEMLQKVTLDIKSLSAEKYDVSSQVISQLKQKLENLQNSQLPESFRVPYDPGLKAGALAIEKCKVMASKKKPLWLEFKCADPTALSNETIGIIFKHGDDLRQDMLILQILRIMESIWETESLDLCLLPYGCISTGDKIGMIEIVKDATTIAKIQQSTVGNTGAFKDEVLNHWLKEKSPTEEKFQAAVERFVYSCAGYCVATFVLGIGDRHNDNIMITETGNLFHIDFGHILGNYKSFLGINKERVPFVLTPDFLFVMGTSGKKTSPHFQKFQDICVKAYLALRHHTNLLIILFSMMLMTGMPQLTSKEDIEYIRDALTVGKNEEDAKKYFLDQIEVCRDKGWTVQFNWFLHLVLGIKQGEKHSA

| Structure (SMILES) | EC50 [1] | EC50 [2] | IC50 (PI3Kγ; Table 4, graded) | IC50 (PI3Kβ; Table 4, graded) | IC50 (HDAC1; [4]) | IC50 (HDAC1; [5]) | IC50 (HDAC1; [6]) | IC50 (HDAC2) | IC50 [3] | IC50 (HDAC9) | IC50 (PI3Kγ; Table 1, graded) | IC50 (PI3Kβ; Table 1, graded) |
| --- | --- | --- | --- | --- | --- | --- | --- | --- | --- | --- | --- | --- |
| COc1ccc(-c2nc(N3CCOCC3)c3nc(CN(C)c4ncc(C(=O)NO)cn4)n(C)c3n2)cc1 [CLJ-29, 2-(((2-(4-methoxyphenyl)-9-methyl-6-morpholine-9H-purine-8-yl))methyl(methyl)amino)-N-hydroxyl pyrimidine-5-formamide] | > 200 nM | < 100 nM | > 10000 nM | > 10000 nM | < 1 nM | < 1 nM | < 1 nM | 1 to 100 nM | 1 to 10 nM | 1000 to 10000 nM |  |  |
| COc1ccc(-c2nc(N3CCOCC3)c3nc(CN(C)c4ncc(C(=O)NO)cn4)n(C)c3n2)cn1 [CLJ-1, 2-(((2-(6-methoxypyridine-3-yl)-9-methyl-6-morpholine-9H-purine-8-yl))methyl(methyl)amino)-N-hydroxyl pyrimidine-5-formamide] | 100 to 200 nM | 100 to 200 nM | 100 to 1000 nM | 1000 to 10000 nM | < 100 nM | 1 to 100 nM |  | 1 to 100 nM | 0.1 to 1 nM | 1000 to 10000 nM | 100 to 1000 nM | 1000 to 10000 nM |
| CN(Cc1nc2c(N3CCOCC3)nc(-c3cnc(N)nc3)nc2n1C)c1ncc(C(=O)NO)cn1 [CLJ-11, 2-(((2-(2-aminopyrimidine-5-yl)-9-methyl-6-morpholine-9H-purine-8-yl))methyl(methyl)amino)-N-hydroxyl pyrimidine-5-formamide] | 100 to 200 nM | 100 to 200 nM | 1 to 100 nM | 1 to 100 nM | < 100 nM | 1 to 100 nM |  | 1 to 100 nM | 10 to 100 nM | 1000 to 10000 nM | 100 to 1000 nM | 100 to 1000 nM |
| Cc1[nH]c2ccccc2c1CCNCc1ccc(/C=C/C(=O)NO)cc1 [LBH589, panobinostat, reference compound] | 100 to 200 nM | 100 to 200 nM | > 10000 nM | > 10000 nM |  |  |  |  | 0.1 to 1 nM |  |  |  |
| CN(Cc1nc2c(N3CCOCC3)nc(-c3ccc(N)cc3)nc2n1C)c1ncc(C(=O)NO)cn1 [CLJ-44] | > 200 nM | 100 to 200 nM | > 10000 nM | > 10000 nM | < 1 nM | < 1 nM | < 1 nM | 1 to 100 nM | 1 to 10 nM | 1000 to 10000 nM |  |  |

Source: patent US10227347B2, “Purinyl-N-hydroxyl pyrimidine formamide derivative, preparation methods and uses thereof” (Guizhou Bailing Group Pharmaceutical CO., LTD., priority 2015, dated 2019)
